# Assays:
# wtKIT = target: T1, wtKIT (Homo sapiens, UniProt P10721); assay: Caliper biochemical assay, wtKIT; details: Table 6, read-out: KIT Biochemical IC50 avg
# T1 construct: 1888289AM in the reaction mixtures
# In short: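 Enzyme (5.0 nM wtKIT), 1 μM FAM-labelled peptide, 400 μM ATP and 10 mM MnCl2 in HEPES pH 7.5 with 1% DMSO, incubated 3 h at 25° C. EDTA quench; substrate and phosphoproduct separated by microfluidic electrophoresis and quantified by fluorescence.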
# CSF-1R = target: T2, CSF-1R (Homo sapiens, UniProt P07333); assay: Caliper biochemical assay, CSF-1R; details: Table 6
# T2 construct: purchased Invitrogen PV3249 (lot 662393N)
# T2 sequence (P07333 20-972): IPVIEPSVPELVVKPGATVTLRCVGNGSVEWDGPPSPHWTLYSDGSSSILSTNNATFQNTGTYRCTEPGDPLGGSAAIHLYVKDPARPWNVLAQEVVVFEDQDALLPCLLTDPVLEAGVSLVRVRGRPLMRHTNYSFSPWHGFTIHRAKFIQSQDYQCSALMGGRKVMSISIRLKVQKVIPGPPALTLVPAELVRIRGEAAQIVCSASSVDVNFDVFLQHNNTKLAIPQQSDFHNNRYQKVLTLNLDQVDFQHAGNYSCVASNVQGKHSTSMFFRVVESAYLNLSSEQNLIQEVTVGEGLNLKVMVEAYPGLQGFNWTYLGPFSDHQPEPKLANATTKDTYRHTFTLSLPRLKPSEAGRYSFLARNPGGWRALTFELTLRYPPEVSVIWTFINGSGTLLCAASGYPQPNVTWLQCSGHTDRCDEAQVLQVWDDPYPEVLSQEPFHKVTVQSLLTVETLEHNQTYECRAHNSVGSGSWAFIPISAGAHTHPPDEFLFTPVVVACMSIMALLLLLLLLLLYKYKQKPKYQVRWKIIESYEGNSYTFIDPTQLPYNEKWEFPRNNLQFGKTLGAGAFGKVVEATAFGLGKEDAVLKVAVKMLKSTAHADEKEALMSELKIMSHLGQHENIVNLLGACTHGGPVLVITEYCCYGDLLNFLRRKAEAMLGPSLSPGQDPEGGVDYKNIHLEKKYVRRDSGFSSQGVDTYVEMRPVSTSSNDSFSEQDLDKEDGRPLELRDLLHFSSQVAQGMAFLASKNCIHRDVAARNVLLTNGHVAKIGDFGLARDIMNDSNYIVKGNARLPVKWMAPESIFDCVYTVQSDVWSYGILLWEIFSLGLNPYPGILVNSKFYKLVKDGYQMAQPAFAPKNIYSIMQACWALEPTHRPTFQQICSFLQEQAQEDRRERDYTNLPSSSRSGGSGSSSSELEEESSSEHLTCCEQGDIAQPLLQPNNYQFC
# Method: (§1) Enzyme, substrate, and cofactors (ATP and Mn^2+) are combined in a well of a microtiter plate and incubated for 3 hours at 25° C. At the end of the incubation, the reaction is quenched by the addition of an EDTA-containing buffer. Substrate and product are separated electrophoretically using the microfluidic-based LabChip 3000 Drug Discovery System from Caliper Life Sciences* and quantitated by fluorescence intensity.
# (§2) The substrate used in the CSF-1R and PDGFRα assay is FAM-[…]-CONH2 (FAM is carboxyfluorescein). Peptide should be >95% purity. The substrate for the KIT assay is FAM-[…]-NH2.
# (§3) • 1. To a well of a 384-well plate add 5 μL of 2× enzyme buffer (or control) • 2. Add 100 nL of 100× compound. • 3. Add 5 μL of 2× substrate buffer. • 4. Incubate plate at 25° C. for 3 hours. • 5. Add 10 uL of […]. • 6. Read plate LabChip 3000 Drug Discovery System
# (§4) • 3 hours at 25° C. where 100% Inhibitor: No enzyme.
# PDGFRα = target: T3, PDGFRα (Homo sapiens, UniProt P16234); assay: Caliper biochemical assay, PDGFRα; details: Table 6
# T3 construct: purchased Millipore 14-467 (lot 26321_ACTI)
# T3 sequence (P16234 24-1089): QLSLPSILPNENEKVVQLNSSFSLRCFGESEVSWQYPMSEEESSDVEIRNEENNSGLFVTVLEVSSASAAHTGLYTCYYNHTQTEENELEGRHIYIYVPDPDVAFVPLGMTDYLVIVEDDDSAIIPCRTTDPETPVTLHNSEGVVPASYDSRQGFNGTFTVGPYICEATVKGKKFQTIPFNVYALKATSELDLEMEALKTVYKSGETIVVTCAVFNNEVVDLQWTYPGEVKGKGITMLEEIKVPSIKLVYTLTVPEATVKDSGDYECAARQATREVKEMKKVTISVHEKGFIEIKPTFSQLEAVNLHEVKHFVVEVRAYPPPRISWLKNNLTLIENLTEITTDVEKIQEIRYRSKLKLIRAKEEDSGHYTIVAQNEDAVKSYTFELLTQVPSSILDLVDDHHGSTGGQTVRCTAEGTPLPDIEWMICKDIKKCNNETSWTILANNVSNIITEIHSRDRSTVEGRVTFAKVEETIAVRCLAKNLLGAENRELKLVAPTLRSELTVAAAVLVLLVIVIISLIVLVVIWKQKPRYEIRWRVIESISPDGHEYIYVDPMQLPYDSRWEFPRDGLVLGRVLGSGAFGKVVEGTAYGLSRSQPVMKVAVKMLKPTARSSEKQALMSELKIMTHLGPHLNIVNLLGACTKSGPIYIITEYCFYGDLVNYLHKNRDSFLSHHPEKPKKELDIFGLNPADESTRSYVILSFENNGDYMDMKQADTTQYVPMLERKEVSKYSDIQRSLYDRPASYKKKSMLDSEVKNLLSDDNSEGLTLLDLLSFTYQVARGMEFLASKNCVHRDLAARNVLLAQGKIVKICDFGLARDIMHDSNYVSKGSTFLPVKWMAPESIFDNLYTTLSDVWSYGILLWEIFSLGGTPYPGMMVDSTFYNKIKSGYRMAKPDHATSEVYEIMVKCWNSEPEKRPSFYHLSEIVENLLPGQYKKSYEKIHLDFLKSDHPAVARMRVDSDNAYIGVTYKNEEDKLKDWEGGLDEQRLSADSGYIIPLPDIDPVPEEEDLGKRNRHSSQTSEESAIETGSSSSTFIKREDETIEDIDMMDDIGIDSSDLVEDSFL
# Method: as §1, §2, §3, §4
# Kinetic solubility assay = assay type: physicochemical; details: kinetic solubility, 50 mM PB (pH 7.4), shaken 24 hours at RT
# In short: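 Test compounds from 10 mM DMSO stock were diluted in 50 mM phosphate buffer, pH 7.4, and shaken for 24 h at RT. After PTFE filtration and centrifugation, filtrate concentration was quantified by UPLC-UV/HPLC-UV against a standard curve.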
# T1 sequence (P10721 26-976): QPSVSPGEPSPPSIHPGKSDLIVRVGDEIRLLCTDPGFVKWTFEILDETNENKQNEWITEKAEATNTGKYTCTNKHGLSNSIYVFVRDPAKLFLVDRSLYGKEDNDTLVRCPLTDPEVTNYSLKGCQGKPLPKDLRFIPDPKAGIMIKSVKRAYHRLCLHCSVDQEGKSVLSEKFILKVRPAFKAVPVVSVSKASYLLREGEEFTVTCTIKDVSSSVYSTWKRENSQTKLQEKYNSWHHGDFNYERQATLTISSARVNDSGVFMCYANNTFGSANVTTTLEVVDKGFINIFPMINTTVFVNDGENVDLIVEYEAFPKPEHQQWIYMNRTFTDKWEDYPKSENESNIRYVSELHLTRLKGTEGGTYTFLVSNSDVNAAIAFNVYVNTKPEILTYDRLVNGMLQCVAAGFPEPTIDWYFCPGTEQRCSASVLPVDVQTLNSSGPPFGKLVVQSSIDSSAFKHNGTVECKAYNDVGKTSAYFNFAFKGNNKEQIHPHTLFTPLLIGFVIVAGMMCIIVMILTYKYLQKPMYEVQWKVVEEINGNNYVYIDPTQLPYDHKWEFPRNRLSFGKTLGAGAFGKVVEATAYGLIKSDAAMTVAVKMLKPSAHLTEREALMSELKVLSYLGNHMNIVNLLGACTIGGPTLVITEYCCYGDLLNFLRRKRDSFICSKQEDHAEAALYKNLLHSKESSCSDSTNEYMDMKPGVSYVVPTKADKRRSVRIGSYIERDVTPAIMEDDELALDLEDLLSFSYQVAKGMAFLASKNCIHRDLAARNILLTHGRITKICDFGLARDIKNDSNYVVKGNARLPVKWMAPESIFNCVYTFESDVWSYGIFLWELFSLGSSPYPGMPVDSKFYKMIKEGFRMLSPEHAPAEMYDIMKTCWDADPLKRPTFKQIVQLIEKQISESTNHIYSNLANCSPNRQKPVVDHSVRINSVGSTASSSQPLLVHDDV
Compound,IC50 (wtKIT),IC50 (CSF-1R),IC50 (PDGFRα),Solubility (μM) (Kinetic solubility assay)
Cc1ccc(-c2noc(C3CCCCN3S(C)(=O)=O)n2)cc1NC(=O)c1cnc2ccccn12 (racemic) [Compound I-174],50 to 500 nM,≤ 50 nM,50 to 500 nM,*** (a solubility greater than 2 μM and less than or equal to 10 μM)
Cc1ccc(-c2noc([C@H]3CCN3C(C)C)n2)cc1NC(=O)c1cnc2ccccn12 [Compound I-194],≤ 50 nM,≤ 50 nM,50 to 500 nM,*** (a solubility greater than 2 μM and less than or equal to 10 μM)
COCCN1CC[C@H]1c1nc(-c2ccc(C)c(NC(=O)c3cnc4ccccn34)c2)no1 (racemic) [Compound I-179],50 to 500 nM,500 to 5000 nM,5000 to 30000 nM,* (a solubility greater than 50 μM)
Cc1ccc(-c2noc([C@H]3C[C@@H]3F)n2)cc1NC(=O)c1cnc2cc(Nc3ccc4c(c3)OCCO4)ccn12 [Compound I-301],≤ 50 nM,≤ 50 nM,≤ 50 nM,**** (a solubility less than or equal to 2 μM)
Cc1ccc(-c2noc([C@H](C)NS(C)(=O)=O)n2)cc1NC(=O)c1cnc2ccccn12 [Compound I-147],≤ 50 nM,50 to 500 nM,5000 to 30000 nM,** (a solubility greater than 10 μM and less than or equal to 50 μM)
Cc1ccc(-c2noc(C3CCN3S(C)(=O)=O)n2)cc1NC(=O)c1cnc2ccccn12 (stereo not drawn) [Compound I-331],≤ 50 nM,≤ 50 nM,50 to 500 nM,** (a solubility greater than 10 μM and less than or equal to 50 μM)
Cc1ccc(-c2noc([C@@H]3CCN3S(=O)(=O)C3CCOCC3)n2)cc1NC(=O)c1cnc2ccccn12 [Compound I-187],50 to 500 nM,50 to 500 nM,50 to 500 nM,** (a solubility greater than 10 μM and less than or equal to 50 μM)
Cc1ccc(-c2noc(C3CCN3S(C)(=O)=O)n2)cc1NC(=O)c1cnc2ccccn12 (racemic) [Compound I-356],≤ 50 nM,50 to 500 nM,500 to 5000 nM,** (a solubility greater than 10 μM and less than or equal to 50 μM)
COC(=O)N1CC(c2nc(-c3ccc(C)c(NC(=O)c4cnc5cc(COCC(F)(F)F)ccn45)c3)no2)C1 [Compound I-128],≤ 50 nM,50 to 500 nM,5000 to 30000 nM,**** (a solubility less than or equal to 2 μM)
COC(=O)CS(=O)(=O)N1CCC1c1nc(-c2ccc(C)c(NC(=O)c3cnc4ccccn34)c2)no1 (stereo not drawn) [Compound I-197],≤ 50 nM,50 to 500 nM,500 to 5000 nM,*** (a solubility greater than 2 μM and less than or equal to 10 μM)
Cc1nc(-c2ccc(C)c(NC(=O)c3cnc4ccc(NCCO)cn34)c2)no1 [Compound I-176],≤ 50 nM,≤ 50 nM,50 to 500 nM,** (a solubility greater than 10 μM and less than or equal to 50 μM)
Cc1ccc(-c2noc([C@@H]3CCC(F)(F)CN3)n2)cc1NC(=O)c1cnc2ccccn12 (racemic) [Compound I-198],≤ 50 nM,50 to 500 nM,500 to 5000 nM,*** (a solubility greater than 2 μM and less than or equal to 10 μM)
Cc1ccc(-c2noc([C@@H]3CCN3C3CC3)n2)cc1NC(=O)c1cnc2ccccn12 (racemic) [Compound I-177],≤ 50 nM,50 to 500 nM,50 to 500 nM,**** (a solubility less than or equal to 2 μM)
CCN1CC[C@H]1c1nc(-c2ccc(C)c(NC(=O)c3cnc4ccccn34)c2)no1 (racemic) [Compound I-180],≤ 50 nM,50 to 500 nM,500 to 5000 nM,* (a solubility greater than 50 μM)
COC(=O)CS(=O)(=O)N1CC[C@H]1c1nc(-c2ccc(C)c(NC(=O)c3cnc4ccccn34)c2)no1 [Compound I-188],≤ 50 nM,50 to 500 nM,50 to 500 nM,*** (a solubility greater than 2 μM and less than or equal to 10 μM)

# From patent US20240254119A1 (THIRD HARMONIC BIO, INC., priority 2022, published 2024)
